Test results as given in US10632127B2, “Targeted notch pathway inhibitors” (Hoffmann-La Roche Inc., priority 2015, dated 2020).
Read-outs that look alike come from different tables or passages of the source. One block for each compound: values may come before it.

Columns and labels:
[1] = Pharmacokinetic assessment in male Wistar rats (i.v.); assay type: in vivo, rat; conditions: for 8 in kidney, relative amount (arbitrarily set to 100%) / 8 in liver, relative amount (kidney = 100%) / concentration at 0.25 h / concentration at 1.25 h / concentration at 2.2 h / concentration at 7 h: 8 3.5 mg/kg i.v.; for concentration at 0.25 h / concentration at 1.25 h / concentration at 2.2 h / concentration at 7 h: rat, iv
Method: (§1) For PK evaluation, the compounds were administered i.p to male C57BL/6 mice in suspension (gelatine/saline 7.5%/0.62% in water) using an administration volume of 4 mL/kg. Blood samples were collected in tubes containing EDTA, plasma was separated by centrifugation and stored at −80° C. Liver and kidney samples (˜100 mg aliquots) were homogenized in three volumes of water using Precellys tissue homogenization tubes (precellys.com). 25 μL of each tissue homogenate was further diluted with 25 μL blank plasma to produce the final tissue homogenate for extraction. All samples were analyzed using protein precipitation followed by LC-MS/MS analysis. Briefly, 50 μL plasma or final tissue homogenate were mixed with 50 μL 0.5M HClO4/acetonitrile 9/1 (containing 200 ng/mL internal standard bosentan). Samples were stirred and 300 μL water was added followed by centrifugation at 5600 rpm (4° C., 10 min). 10 μL supernatant was analyzed by LC/MS analysis. Calibration standards in plasma were prepared the same way. The LC column and conditions used were: Phenomenex, Polar RP, 4 μm, 50×2.1 mm at 0.4 mL/min flow rate with a 3 min gradient from 95% solvent A to 95% solvent B (Solvent A: Water/ACN/HCOOH, 90:10:0.1+10 mM NH4 formate; Solvent B: Water/ACN/HCOOH, 10:90:0.1+10 mM NH4 formate). Mass spectrometric conditions were: Thermo TSQ Vantage with positive heated electrospray ionization in MS/MS mode. Compounds mass transitions monitored were m/z 320.7 to 119.9. PK parameters for all studies were calculated using Phoenix WinNonlin Software.
We next determined the stability, tissue distribution and cleavage rate in plasma, liver and kidney of the designed prodrugs in male Wistar rats. In the in vivo screen, the kinetics and distribution of the prodrugs Ac-γ-Glu-SecrI (13a) and Ac-γ-Glu-O-SecrI (13c) were compared with the active γ-secretase inhibitor SecrI (8). After i.v. administration in male Wistar rats, the disappearance of the prodrugs and the formation of the active amine-SecrI (11a), amine-O-SecrI (11b) and SecrI (8) were compared in plasma, liver and kidney (Table 7A-C). First, we determined the pharmacokinetics (PK) behavior of SecrI (8) following i.v. administration (Table 7A). […] Liver and kidney exposure were much higher, with same exposure in liver and kidney. […] The selectivity towards kidney stayed constant over time. The carbonate analogue Ac-γ-Glu-O-SecrI (13c) prodrug was converted to a lower extent than the Ac-γ-Glu-SecrI (13a) to amine-O-SecrI (11b) but more to the linker free γ-secretase inhibitor 8 (Table 7C).
Plasma and tissue concentrations of administered compound (A-C) and formed amine-SecrI (11a), amine-O-SecrI (11b) or SecrI (8) (B-C) were determined following i.v. administration in rats (no standard deviation given due to sparse sampling; n≤3 rats per time point). Numbers in parentheses represent relative amounts with the exposure of kidney arbitrarily set at each time point to 100%. […] BQL=below quantifiable limit.

[2] = Distribution in plasma, liver and kidney in the aristolochic acid mouse model (repeated i.p.); assay type: in vivo; conditions: AA-exposed mice, 11a 10 mg/kg b.i.d. i.p. repeated, 13 h
Method: as §1
All experiments with animals were conducted in accordance with federal and local regulation at the respective study location. Kidney injury was induced by intraperitoneal (i.p). injection of aristolochic acid (AA, Sigma-Aldrich, 1×5 mg/kg) in 10 weeks old BALB/c male mice. The γ-secretase inhibitors prodrugs were diluted in NaCl 0.9% and administered i.p., starting one day before the injection of AA (day −1) and then twice daily until day 6 evening (n=5 mice/experimental group). […] The kidneys were cut in four fragments. One fragment was immediately frozen in liquid nitrogen, one fragment was included in OCT (Tissue-Tek, VWR International, Switzerland) and frozen, one fragment was frozen at −80° C. and one fragment was fixed in 4% paraformaldehyde and included in paraffin.
To investigate potential nephroprotective effects of Notch blockade using γ-secretase inhibition and to evaluate the effects of our enzyme-targeted prodrug strategy, we used the in vivo AA mouse model of acute renal tubular damage. […]
Plasma and tissue concentrations of administered compound (Table 6A-C) and formed free γ-secretase inhibitor (8) (Table 6A) or amine-SecrI (11a) (Table 6B-C) were determined following 8-day repeated i.p. administration at 10 mg/kg b.i.d. (Table 6A) or 30 mg/kg b.i.d. […] Numbers in parentheses represent relative amounts with the exposure of 11a in kidney arbitrarily set at each time point to 100%. […] BQL=below quantifiable limit.

[3] = Pharmacokinetic assessment in C57BL/6 healthy wild-type mice (i.p.); assay type: in vivo, mouse; conditions: C57BL/6 mice, 10 mg/kg i.p.; for concentration at 0.5 h / concentration at 4 h / concentration at 7 h: male, mouse, ip
Method: as §1
We next determined the stability, tissue distribution and cleavage rate in plasma, liver and kidney of the designed prodrugs in non-diseased mice. In the in vivo screen, the kinetics and distribution of γ-secretase inhibitor prodrugs Ac-γ-Glu-SecrI (13a), Ac-α-Glu-SecrI (15a) and H-α-Glu-SecrI (15b) were compared with the active γ-secretase inhibitor amine-SecrI (11a). After i.p administration (10 mg/kg) in C57BL/6 mice, the disappearance of the prodrugs and the formation of the active amine-SecrI (11a) were compared in plasma, liver and kidney (Table 5). First, we determined the pharmacokinetics (PK) behavior of amine-SecrI (11a) following i.p. administration (Table 5A). […] Liver and kidney exposure were much higher, with approximately 4.5-fold higher exposure in liver compared to kidney. […] The selectivity towards kidney appeared to decrease over time, probably due to fast clearance and re-equilibration of the amine-SecrI (11a). However, the high selectivity at earlier time-points assured that the total exposure over time was much higher in the kidney compared to the liver.

[4] = kidney, read-out: Kidney concentration of administered compound
[5] = liver, read-out: Liver concentration of administered compound
[6] = plasma, read-out: Plasma concentration of administered compound

Structure (SMILES): C[C@H]1Oc2ccc(F)cc2N(CCO)C(=O)[C@H]1NC(=O)[C@@](C)(O)C(=O)NCC(F)(F)C(F)(F)F [Compound 8, N-[(6R,7S)-2-Fluoro-9-(2-hydroxy-ethyl)-6-methyl-8-oxo-6,7,8,9-tetrahydro-5-oxa-9-aza-benzocyclohepten-7-yl]-2-(S)-hydroxy-2-methyl-N′-(2,2,3,3,3-pentafluoro-propyl)-malonamide]
8 in kidney, relative amount (arbitrarily set to 100%) ([1]; 0.25 h): (100) %
8 in liver, relative amount (kidney = 100%) ([1]; 0.25 h): (93) %
8 in kidney, relative amount (arbitrarily set to 100%) ([1]; 1.25 h): (100) %
8 in liver, relative amount (kidney = 100%) ([1]; 1.25 h): (101) %
8 in kidney, relative amount (arbitrarily set to 100%) ([1]; 2.2 h): (100) %
8 in liver, relative amount (kidney = 100%) ([1]; 2.2 h): (133) %
8 in kidney, relative amount (arbitrarily set to 100%) ([1]; 7 h): (100) %
8 in liver, relative amount (kidney = 100%) ([1]; 7 h): (126) %
Plasma concentration of formed 8 ([1]; 13c 1.5 mg/kg i.v., 4 h): BQL
Formed 8 in kidney, relative amount (arbitrarily set to 100%) ([1]; 13c 1.5 mg/kg i.v., 7 h): (100) %
Formed 8 in liver, relative amount (kidney = 100%) ([1]; 13c 1.5 mg/kg i.v., 7 h): (43) %
Plasma concentration of formed 8 ([1]; 13c 1.5 mg/kg i.v., 7 h): BQL
kidney selectivity, in words ([1]; formed after 13c i.v.): only a moderate kidney selectivity
plasma clearance, in words ([1]; i.v.): rapid plasma clearance
plasma exposure, in words ([1]; i.v.): good plasma exposure
concentration at 0.25 h ([1]; kidney, 0.25 h, read-out: Kidney concentration of 8): 3320 ng/g
concentration at 1.25 h ([1]; kidney, 1.25 h, read-out: Kidney concentration of 8): 844 ng/g
concentration at 2.2 h ([1]; kidney, 2.2 h, read-out: Kidney concentration of 8): 225 ng/g
concentration at 7 h ([1]; kidney, 7 h, read-out: Kidney concentration of 8): 92.4 ng/g
concentration at 0.25 h ([1]; liver, 0.25 h, read-out: Liver concentration of 8): 3100 ng/g
concentration at 1.25 h ([1]; liver, 1.25 h, read-out: Liver concentration of 8): 852 ng/g
concentration at 2.2 h ([1]; liver, 2.2 h, read-out: Liver concentration of 8): 298 ng/g
concentration at 7 h ([1]; liver, 7 h, read-out: Liver concentration of 8): 116 ng/g
concentration at 0.25 h ([1]; plasma, 0.25 h, read-out: Plasma concentration of 8): 964 ng/mL
concentration at 1.25 h ([1]; plasma, 1.25 h, read-out: Plasma concentration of 8): 198 ng/mL
concentration at 2.2 h ([1]; plasma, 2.2 h, read-out: Plasma concentration of 8): 39.7 ng/mL
concentration at 7 h ([1]; plasma, 7 h, read-out: Plasma concentration of 8): 18.4 ng/mL
Plasma concentration of formed 8 [2]: BQL

conversion to amine-SecrI (11a), in words [3]: much lower extent
Plasma concentration of administered compound ([3]; 4 h): BQL
concentration at 0.5 h [3, 4]: 7540 ng/g
concentration at 4 h ([3]; kidney, 4 h, read-out: Kidney concentration of administered compound): 81 ng/g
concentration at 7 h [3, 4]: 33.8 ng/g
concentration at 0.5 h [3, 5]: 7220 ng/g
concentration at 4 h ([3]; liver, 4 h, read-out: Liver concentration of administered compound): 2850 ng/g
concentration at 7 h [3, 5]: 737 ng/g
concentration at 0.5 h [3, 6]: 573 ng/mL
concentration at 7 h [3, 6]: 6.29 ng/mL
Structure (SMILES): CC(=O)N[C@@H](CCC(=O)O)C(=O)NCCNC(=O)OCCN1C(=O)[C@@H](NC(=O)[C@@](C)(O)C(=O)NCC(F)(F)C(F)(F)F)[C@@H](C)Oc2ccc(F)cc21 [Compound 15a, (S)-4-acetamido-5-(2-((2-((2R,3S)-7-fluoro-3-((S)-2-hydroxy-2-methyl-3-oxo-3-(2,2,3,3,3-pentafluoropropylamino)propanamido)-2-methyl-4-oxo-3,4-dihydrobenzo[b][1,4]oxazepin-5(2H)-yl)ethoxy)carbonylamino)ethylamino)-5-oxopentanoic acid]
